Assay results: ChEMBL document CHEMBL1201862, “PubChem BioAssay data set” (2004)
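Tested at 5 concentrations; 48 h exposure; 96-well plates; endpoints linearly interpolated, else capped at highest concentration. GI50 marks 50% less growth.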 Calls of active or inactive are those of the source. No stated cut-off is given here; in the data, active = GI50 up to about 1.1 µM and inactive = higher.

What was measured:
Assay in all cases: DTP human tumour cell line panel, 48 h
[1] = test system: MOLT-4
[2] = test system: TK-10
[3] = test system: NCI-H460
[4] = test system: OVCAR-4
[5] = test system: SNB-19
[6] = test system: A549
[7] = test system: IGROV-1
[8] = test system: HCT-116
[9] = test system: CAKI-1
[10] = test system: HCT-15
[11] = test system: BT-549
[12] = test system: HCC 2998
[13] = test system: SR
[14] = test system: HL-60
[15] = test system: ACHN
[16] = test system: UACC-62
[17] = test system: NCI-H226
[18] = test system: OVCAR-5
[19] = test system: SW-620
[20] = test system: HOP-62
[21] = test system: HT-29
[22] = test system: EKVX
[23] = test system: NCI-H522
[24] = test system: SF-295
[25] = test system: SK-MEL-2
[26] = test system: SF-268
[27] = test system: M14
[28] = test system: SK-MEL-5
[29] = test system: DU-145
[30] = test system: UO-31
[31] = test system: SK-MEL-28
[32] = test system: MDA-MB-231
[33] = test system: Hs-578T
[34] = test system: MCF7
[35] = test system: NCI-H23
[36] = test system: 786-0
[37] = test system: SN12C
[38] = test system: MDA-N
[39] = test system: RPMI-8226
[40] = test system: T47D
[41] = test system: K562
[42] = test system: RXF 393
[43] = test system: A498
[44] = test system: CCRF-CEM
[45] = test system: NCI/ADR-RES
[46] = test system: MDA-MB-435
[47] = test system: OVCAR-8
[48] = test system: UACC-257
[49] = test system: COLO 205
[50] = test system: PC-3
[51] = test system: U-251
[52] = test system: SK-OV-3
[53] = test system: OVCAR-3
[54] = test system: HOP-92
[55] = test system: Malme-3M
[56] = test system: KM12
[57] = test system: SNB-75
[58] = test system: LOX IMVI
[59] = test system: SF-539

## NC(=S)NN=C1Cc2ccccc2C1
[1]
  GI50: > 100 µM (inactive)
[2]
  GI50: > 100 µM (inactive)
[3]
  GI50: > 100 µM (inactive)
[4]
  GI50: > 100 µM (inactive)
[5]
  GI50: > 100 µM (inactive)
[6]
  GI50: > 100 µM (inactive)
[7]
  GI50: > 100 µM (inactive)
[8]
  GI50: > 100 µM (inactive)
[9]
  GI50: > 100 µM (inactive)
[10]
  GI50: > 100 µM
[11]
  GI50: > 100 µM (inactive)
[12]
  GI50: > 100 µM (inactive)
[13]
  GI50: > 100 µM (inactive)
[14]
  GI50: > 100 µM (inactive)
[15]
  GI50: > 100 µM (inactive)
[16]
  GI50: > 100 µM (inactive)
[17]
  GI50: > 100 µM (inactive)
[18]
  GI50: > 100 µM (inactive)
[19]
  GI50: > 100 µM (inactive)
[20]
  GI50: > 100 µM (inactive)
[21]
  GI50: > 100 µM (inactive)
[22]
  GI50: 42.3 µM (inactive)
[23]
  GI50: > 100 µM (inactive)
[24]
  GI50: > 100 µM (inactive)
[25]
  GI50: > 100 µM (inactive)
[26]
  GI50: > 100 µM (inactive)
[27]
  GI50: > 100 µM (inactive)
[28]
  GI50: > 100 µM (inactive)
[29]
  GI50: > 100 µM (inactive)
[30]
  GI50: > 100 µM (inactive)
[31]
  GI50: > 100 µM (inactive)
[32]
  GI50: > 100 µM (inactive)
[33]
  GI50: > 100 µM (inactive)
[34]
  GI50: > 100 µM (inactive)
[35]
  GI50: > 100 µM (inactive)
[36]
  GI50: > 100 µM (inactive)
[37]
  GI50: > 100 µM (inactive)
[38]
  GI50: > 100 µM (inactive)
[39]
  GI50: > 100 µM (inactive)
[40]
  GI50: > 100 µM (inactive)
[41]
  GI50: > 100 µM (inactive)
[42]
  GI50: > 100 µM (inactive)
[43]
  GI50: > 100 µM (inactive)
[44]
  GI50: > 100 µM (inactive)
[45]
  GI50: > 100 µM (inactive)
[46]
  GI50: > 100 µM (inactive)
[47]
  GI50: > 100 µM (inactive)
[48]
  GI50: > 100 µM (inactive)
[49]
  GI50: > 100 µM (inactive)
[50]
  GI50: > 100 µM (inactive)
[51]
  GI50: > 100 µM (inactive)
[52]
  GI50: > 100 µM (inactive)
[53]
  GI50: > 100 µM (inactive)
[54]
  GI50: > 100 µM (inactive)
[55]
  GI50: > 100 µM (inactive)
[56]
  GI50: > 100 µM (inactive)
[57]
  GI50: > 100 µM (inactive)
[58]
  GI50: > 100 µM (inactive)
[59]
  GI50: > 100 µM (inactive)

## COC(=O)/C=C\C(C#N)(C#N)/N=C/c1ccc(C)cc1
[1]
  GI50: 0.778 µM (active)
[2]
  GI50: 1.8 µM (inactive)
[3]
  GI50: 19.6 µM (inactive)
[4]
  GI50: 3.89 µM (inactive)
[5]
  GI50: 19.5 µM (inactive)
[6]
  GI50: 17.7 µM (inactive)
[7]
  GI50: 13.1 µM (inactive)
[8]
  GI50: 1.76 µM (inactive)
[9]
  GI50: 2.59 µM (inactive)
[10]
  GI50: 2.56 µM
[11]
  GI50: 5.02 µM (inactive)
[12]
  GI50: 18.2 µM (inactive)
[13]
  GI50: 0.706 µM (active)
[14]
  GI50: 2.52 µM (inactive)
[15]
  GI50: 2.3 µM (inactive)
[16]
  GI50: 14.9 µM (inactive)
[17]
  GI50: 8.75 µM (inactive)
[18]
  GI50: 19.7 µM (inactive)
[19]
  GI50: 1.95 µM (inactive)
[20]
  GI50: 19.3 µM (inactive)
[21]
  GI50: 3.8 µM (inactive)
[22]
  GI50: 14.4 µM (inactive)
[23]
  GI50: 0.378 µM (active)
[24]
  GI50: 25.2 µM (inactive)
[25]
  GI50: 16.3 µM (inactive)
[26]
  GI50: 3.78 µM (inactive)
[27]
  GI50: 2.01 µM (inactive)
[28]
  GI50: 12.6 µM (inactive)
[29]
  GI50: 5.86 µM (inactive)
[30]
  GI50: 2.49 µM (inactive)
[31]
  GI50: 5.5 µM (inactive)
[32]
  GI50: 15.5 µM (inactive)
[33]
  GI50: 20.5 µM (inactive)
[34]
  GI50: 1.67 µM (inactive)
[35]
  GI50: 5.57 µM (inactive)
[36]
  GI50: 1.6 µM (inactive)
[37]
  GI50: 13.2 µM (inactive)
[38]
  GI50: 4.06 µM (inactive)
[39]
  GI50: 0.586 µM (active)
[40]
  GI50: 1.79 µM (inactive)
[41]
  GI50: 3.04 µM (inactive)
[42]
  GI50: 1.9 µM (inactive)
[43]
  GI50: 17.7 µM (inactive)
[44]
  GI50: 0.0673 µM (active)
[45]
  GI50: 3.1 µM (inactive)
[46]
  GI50: 2.21 µM (inactive)
[47]
  GI50: 2.25 µM (inactive)
[48]
  GI50: 4.24 µM (inactive)
[49]
  GI50: 1.97 µM (inactive)
[50]
  GI50: 6.44 µM (inactive)
[51]
  GI50: 13 µM (inactive)
[52]
  GI50: 17.6 µM (inactive)
[53]
  GI50: 2.6 µM (inactive)
[54]
  GI50: 1.09 µM (active)
[55]
  GI50: 2.28 µM (inactive)
[56]
  GI50: 18 µM (inactive)
[57]
  GI50: 15.3 µM (inactive)
[58]
  GI50: 2.33 µM (inactive)
[59]
  GI50: 4.38 µM (inactive)
